US5135917A, “Interleukin receptor expression inhibiting antisense oligonucleotides” (Nova Pharmaceutical Corporation, priority 1990, dated 1992)

Columns and labels:
Assay type in all cases: cell-based
human dermal fibroblasts [1] = assay: Liposome delivery, IL-1 stimulated PGE2 in human dermal fibroblasts; conditions: liposomes; S0-6 30 μM; IL-1 10 U/ml for 4 hours; control (empty liposome) 65
Method: For the experiment human dermal fibroblasts were incubated for 18 hours with IL-1, 100 u/ml., to down-regulate existing receptors. The cells were then rinsed three times with phosphate-buffered saline containing 2 mM calcium and 0.1 mM magnesium to remove IL-1, then incubated 30 minutes. Liposomes were then added and the mixture was incubated for 30 minutes. Finally, polyethylene glycol (M.W.6000) was added for 1 minute, then the cultures were rinsed three times in culture medium. Cultures were incubated for eight hours, then stimulated with IL-1, 10 U/ml for 4 hours. Media were collected for radioimmunoassy of PGE2.

human dermal fibroblasts [2] = assay: IL-1 stimulated prostaglandin E2 synthesis, human fibroblasts; conditions: Human cells; oligonucleotides 30 μm for 48 hours, then IL-1β 10 μ/ml for 6 hours; control 25
Method: (§1) 1. IL-1 stimulated prostaglandin E2 synthesis.
(§2) Effects of expression of IL-1 receptors by murine and human fibroblasts were assessed as follows Murine Swiss 3T3 cells (American Type Culture Collection ATCC CCL 92) or human dermal fibroblasts (primary culture) were grown in 96-well plates in Dulbecco's modified Eagles medium containing either 10% calf serum or 10% fetal bovine serum, respectively (Grand Island Biological Company), to confluency. The culture medium was replaced with identical medium except that the serum had been heat-inactivated at 65° C. for 15 minutes to inactivate nucleases. Oligonucleotides (30 μm) were added to the cultures and incubated for 48 hours. […] Oligonucleotides (phosphorothioates) S0-1, S0-2 and S0-3 are antisense to murine IL-1 receptor DNA and S0-6 is antisense to human IL-1 receptor DNA.

Murine Swiss 3T3 cells = assay: IL-1 stimulated prostaglandin E2 synthesis, murine fibroblasts; conditions: oligonucleotides 30 μm for 48 hours, then IL-1β 10 μ/ml for 6 hours, control 60
Method: as §1, §2

IL-1: cytokine interleukin 1, used as stimulus of prostaglandin E2 synthesis
PGE2, pg/well (human dermal fibroblasts [1]): 398 pg/well
PGE2, pg/well (human dermal fibroblasts [2]): 285 pg/well
PGE2, pg/well (Murine Swiss 3T3 cells): 375 pg/well
